Results as given in BindingDB's records for doi:10.1021/acsmedchemlett.8b00532 (Sapienza University of Rome, 2019).

Experiment: Inhibition of NHERF1 in human SW620 cells expressing NHERF1 assessed as inhibition cell growth incubated for 72 hrs by MTT assay

Structure (SMILES): Cc1cc([N+](=O)[O-])ccc1NS(=O)(=O)c1cc(Cl)ccc1Cl
- IC50: 19 µM
